Measurements taken from patent US7993627B2, “Methods for determining whether a compound alters the amount of at least one αβ (X-41) peptide and the amount of either total αβ or at least one αβ (X-40) peptide produced by a non-human mammal” (Elan Pharmaceuticals, Inc., priority 1996, dated 2011).
Where a SMILES comes first, the peptide text is derived from it. The star is where a group is joined. Cbz = O=C(OCc1ccccc1)*

Columns and labels:
[1] = system: K695sw cells; assay: Pulse-chase labeling and immunoprecipitation of chase media and cell lysates (APP processing); format: cell-based, human
Method: We first set out to reproduce the published results of Higaki et al. (1995) Neuron, 14:651-659 on the action of the compound MDL 28170 on APP processing, using human kidney 293 cells stably expressing APP695 with the Swedish FAD mutation (K695sw cells). Our experiments were done using a pulse-chase paradigm: K695sw cells were labeled for 2 hours with 35S-methionine and then chased for 2 hours in the presence of 200 μM MDL 28170. Aliquots of the chase media from treated and untreated cells were subjected to SDS-PAGE.
To address this question, we performed pulse-chase experiments on K695sw cells using different doses of MDL 28170, followed by sequential immunoprecipitation of the same media first with 21F12, a monoclonal antibody raised against amino acids 33-42 of Aβ (described above) which specifically precipitates Aβ peptides ending at position 42, and then with antibody 1282 which precipitates all forms of Aβ and p3 (Haass et al., (1992b) Nature 359:322-325) (FIG. 4A). […] Using MDL 28170 at 200 μM, the experiment was repeated four times and the results were quantitated by phosphorimaging (FIG. 4B).
All transfected cell lines described here carry derivatives of pCMV695, a plasmid carrying APP695 under control of the CMV promoter (Selkoe, (1988) Proc. Natl. Acad. Sci. 85:7341-7345) K695sw are human embryonic kidney 293 cells stably transfected with a construct carrying the AD-linked double (“Swedish”) mutation K595N/M596L (Citron et al. (1992) Nature, 360:672-674); K695717I are 293 cells stably transfected with APP695 carrying the mutation V717I (valine to isoleucine at position 717 in the APP770 numbering system). CHO695 are Chinese hamster ovary cells (CHO) stably transfected with pCMV695 (Oltersdorf (1990) J. Biol. Chem. 265:4432-4437) SKN695 are SK-N-SH human neuroblastoma cells stably transfected with pCMV695.
To analyze the effect of MDL 28170 on the processing of APP, cells were grown to confluence in two 10 cm dishes, pulse-labeled with 600 μCi of [^35S]-methionine in 4 ml of serum-free medium for 2 hours and then chased for 2 hours with 4 ml medium containing 10% fetal bovine serum and the indicated final concentration of MDL 28170 (initially dissolved at 200 mM. in DMSO). Control dishes were treated with DMSO alone.
Conditioned media and cell lysates were analyzed by immunoprecipitation, as described (Haass, et al. (1992) Nature 359:322-325). Polyclonal antibody R1736 to residues 595-611 of APP695 was used to precipitate α-APPs (Haass, (1994) J. Biol. Chem. 269:17741-17748). This antibody recognizes an epitope that is specific for the free COOH-terminus of α-cleaved APPs. Polyclonal antibody R1282 was generated to synthetic Aβ1-40 (Haass, et al. (1992) Nature 359:322-325). […]

[2] = system: total Aβ and total p3; conditions: literature; cited from earlier work

| Compound | β-secretase activity (β-cleaved APPs, antibody 192sw immunoprecipitation) ([1]; 200 μM during 2 h chase) | total Aβ [2] | total p3 [2] | Aβ(42) (antibody 21F12) ([1]; 1 μM PDBu, 2 h pulse 2 h chase) | p3(42) (antibody 21F12) ([1]; 1 μM PDBu, 2 h pulse 2 h chase) | total Aβ (subsequent R1282) ([1]; 1 μM PDBu, 2 h pulse 2 h chase) |
| --- | --- | --- | --- | --- | --- | --- |
| CC(C)[C@H](NC(=O)OCc1ccccc1)C(=O)N[C@H](C=O)Cc1ccccc1 [MDL 28170] (Cbz-Val-Phe-aldehyde) | does not significantly inhibit | – | – | – | – | – |
| CCCC(=O)O[C@@H]1[C@@H](C)[C@@]2(O)[C@@H](C=C(CO)C[C@]3(O)C(=O)C(C)=C[C@@H]23)[C@@H]2C(C)(C)[C@]12OC(=O)CCC [PDBu] | – | decrease | increase | decreases | increase | decreases |
